From PubChem BioAssay AID248 (DTP/NCI, 2004)
Several values for one entry are separate records, joined by “and”; a condition that tells them apart may be missing. Equal entries are not always repeated. Inconclusive results and toxic doses are left out. Cut-off read from the data, not from the text of the source: active = T/C of 150% or more; inactive = T/C below 125%.

Tested on: L1210 leukemia ip in BDF1 mice, survival T/C
Assay: NCI In Vivo Anticancer Drug Screen. Data for tumor model L1210 Leukemia (intraperitoneal) in B6D2F1 (BDF1) mice
Conditions: endpoint: mean survival time, higher = longer survival
Outline: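 Mice bearing the transplanted tumor received compound or vehicle. Survival of the treated group was divided by that of the vehicle-treated control group to give the ratio.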

[1] = dose: 100.0 mg/kg/injection, schedule: Q04DX003 (ip), vehicle: saline with Tween-80
[2] = dose: 200.0 mg/kg/injection, schedule: Q04DX003 (ip), vehicle: saline with Tween-80
[3] = dose: 50.0 mg/kg/injection, schedule: Q01DX009 (ip), vehicle: saline
[4] = dose: 100.0 mg/kg/injection, schedule: Q01DX009 (ip), vehicle: saline
[5] = dose: 200.0 mg/kg/injection, schedule: Q01DX001 (ip), vehicle: saline
[6] = dose: 400.0 mg/kg/injection, schedule: Q01DX001 (ip), vehicle: saline
[7] = dose: 400.0 mg/kg/injection, schedule: Q04DX003 (ip), vehicle: saline with Tween-80
[8] = dose: 100.0 mg/kg/injection, schedule: Q04DX003 (ip), vehicle: saline
[9] = dose: 100.0 mg/kg/injection, schedule: Q01DX009 (ip), vehicle: Klucel (hydroxypropylcellulose) (HPC)
[10] = dose: 200.0 mg/kg/injection, schedule: Q01DX009 (ip), vehicle: Klucel (hydroxypropylcellulose) (HPC)
[11] = dose: 400.0 mg/kg/injection, schedule: Q01DX009 (ip), vehicle: Klucel (hydroxypropylcellulose) (HPC)
[12] = dose: 100.0 mg/kg/injection, schedule: Q01DX001 (ip), vehicle: Klucel (hydroxypropylcellulose) (HPC)
[13] = dose: 200.0 mg/kg/injection, schedule: Q01DX001 (ip), vehicle: Klucel (hydroxypropylcellulose) (HPC)

Measured: T/C

COc1ccc(Cc2c3cc(OC)c(OC)cc3cc[n+]2C)cc1OC
inactive: dose: 12.5 mg/kg/injection, schedule: Q01DX009 (ip), vehicle: saline with Tween-80 103 % of control | dose: 25.0 mg/kg/injection, schedule: Q01DX009 (ip), vehicle: saline with Tween-80 100 % of control | dose: 50.0 mg/kg/injection, schedule: Q01DX009 (ip), vehicle: saline with Tween-80 105 % of control and 106 % of control | [1] 98 % of control | [2] 95 % of control

CC(C)=CC(=O)CC(O)(C(F)(F)F)C(F)(F)Cl (stereo not drawn)
inactive: [3] 92 % of control | [4] 100 % of control

O=C(N/N=C/c1cc(Cl)ccc1[N+](=O)[O-])c1cccc2ccccc12
inactive: [5] 101 % of control | [6] 97 % of control

CCC(CC)C(O)C(C)C(C)O (stereo not drawn)
inactive: [1] 97 % of control | [2] 113 % of control | [7] 97 % of control

CCNC(C)C
inactive: dose: 25.0 mg/kg/injection, schedule: Q01DX009 (ip), vehicle: saline 98 % of control | dose: 25.0 mg/kg/injection, schedule: Q04DX003 (ip), vehicle: saline 92 % of control | [3] 93 % of control | dose: 50.0 mg/kg/injection, schedule: Q04DX003 (ip), vehicle: saline 97 % of control | [4] 98 % of control | [8] 95 % of control and 107 % of control

O=[N+]([O-])c1ccc(NC(=S)Nc2cccc(C(F)(F)F)c2)cc1
inactive: [9] 90 % of control | [10] 91 % of control | [11] 100 % of control

O=C(c1ccc([N+](=O)[O-])cc1)N1CC1Cc1ccccc1 (stereo not drawn)
inactive: [12] 89 % of control | [13] 89 % of control

CONC(=O)Nc1cccc2ccccc12
inactive: dose: 75.0 mg/kg/injection, schedule: Q01DX001 (ip), vehicle: other 100 % of control | dose: 75.0 mg/kg/injection, schedule: Q04DX003 (ip), vehicle: other 97 % of control | dose: 150.0 mg/kg/injection, schedule: Q01DX001 (ip), vehicle: other 110 % of control | dose: 150.0 mg/kg/injection, schedule: Q04DX003 (ip), vehicle: other 96 % of control | dose: 300.0 mg/kg/injection, schedule: Q01DX001 (ip), vehicle: other 106 % of control | dose: 300.0 mg/kg/injection, schedule: Q04DX003 (ip), vehicle: other 100 % of control

NC(=O)Nc1cccc2ccccc12
inactive: [9] 97 % of control | dose: 100.0 mg/kg/injection, schedule: Q04DX003 (ip), vehicle: Klucel (hydroxypropylcellulose) (HPC) 92 % of control | [10] 97 % of control | dose: 200.0 mg/kg/injection, schedule: Q04DX003 (ip), vehicle: Klucel (hydroxypropylcellulose) (HPC) 94 % of control | [11] 103 % of control | dose: 400.0 mg/kg/injection, schedule: Q04DX003 (ip), vehicle: Klucel (hydroxypropylcellulose) (HPC) 100 % of control

O=C1c2ccccc2C(=O)N1N1C(=O)c2ccccc2C1=O
inactive: dose: 100.0 mg/kg/injection, schedule: Q01DX009 (ip), vehicle: saline with Tween-80 96 % of control | [1] 97 % of control | dose: 200.0 mg/kg/injection, schedule: Q01DX009 (ip), vehicle: saline with Tween-80 91 % of control | [2] 100 % of control | dose: 400.0 mg/kg/injection, schedule: Q01DX009 (ip), vehicle: saline with Tween-80 96 % of control | [7] 97 % of control

CC/C(Cc1ccc(O)cc1)=N\N=C(N)N
inactive: dose: 15.0 mg/kg/injection, schedule: Q01DX Z (ip), vehicle: methylcellulose (MC) 97 % of control | dose: 30.0 mg/kg/injection, schedule: Q01DX Z (ip), vehicle: methylcellulose (MC) 94 % of control | dose: 30.0 mg/kg/injection, schedule: Q01DX Z (oral), vehicle: methylcellulose (MC) 92 % of control | dose: 60.0 mg/kg/injection, schedule: Q01DX Z (ip), vehicle: methylcellulose (MC) 97 % of control | dose: 60.0 mg/kg/injection, schedule: Q01DX Z (oral), vehicle: methylcellulose (MC) 98 % of control | dose: 240.0 mg/kg/injection, schedule: Q01DX Z (oral), vehicle: methylcellulose (MC) 93 % of control

N\C([S-])=N/N=C\C(=N/N=C(\N)[S-])C(O)C(O)C(O)CO.[Rh+2] (stereo not drawn)
inactive: dose: 100.0 mg/kg/injection, schedule: Q04DX003 (ip), vehicle: other 106 % of control | dose: 200.0 mg/kg/injection, schedule: Q04DX003 (ip), vehicle: other 93 % of control | dose: 400.0 mg/kg/injection, schedule: Q04DX003 (ip), vehicle: other 98 % of control

[O-][n+]1c(C(Cl)(Cl)Cl)cc(Cl)nc1Cl
inactive: [12] 98 % of control | [13] 97 % of control

O=C(c1ccc2ccccc2c1)c1cccc(F)c1C(=O)O (tested in a mixture with another compound)
inactive: dose: 75.0 mg/kg/injection, schedule: Q01DX001 (ip), vehicle: carboxymethylcellulose (CMC) 95 % of control | dose: 150.0 mg/kg/injection, schedule: Q01DX001 (ip), vehicle: carboxymethylcellulose (CMC) 90 % of control

CC(=O)OC1CCCC2C(=O)c3c(c(O)c4ccccc4c3O)C(=O)C12 (stereo not drawn)
inactive: [4] 98 % of control | [8] 96 % of control | dose: 200.0 mg/kg/injection, schedule: Q01DX009 (ip), vehicle: saline 98 % of control | dose: 200.0 mg/kg/injection, schedule: Q04DX003 (ip), vehicle: saline 96 % of control | dose: 400.0 mg/kg/injection, schedule: Q01DX009 (ip), vehicle: saline 101 % of control | dose: 400.0 mg/kg/injection, schedule: Q04DX003 (ip), vehicle: saline 93 % of control

COc1ccc(-n2c(=O)c(N=Nc3ccccc3C)c(O)n(-c3ccccc3OC)c2=S)cc1
inactive: dose: 75.0 mg/kg/injection, schedule: Q01DX001 (ip), vehicle: Klucel (hydroxypropylcellulose) (HPC) 97 % of control | dose: 150.0 mg/kg/injection, schedule: Q01DX001 (ip), vehicle: Klucel (hydroxypropylcellulose) (HPC) 92 % of control

CC(CC(=O)c1ccc(F)cc1)N1CCN(c2ccccc2)CC1 (stereo not drawn)
inactive: dose: 100.0 mg/kg/injection, schedule: Q01DX001 (ip), vehicle: carboxymethylcellulose (CMC) 103 % of control | dose: 200.0 mg/kg/injection, schedule: Q01DX001 (ip), vehicle: carboxymethylcellulose (CMC) 90 % of control | dose: 400.0 mg/kg/injection, schedule: Q01DX001 (ip), vehicle: carboxymethylcellulose (CMC) 90 % of control

O=C(CNC(=O)c1ccccc1)Nc1ccc([N+](=O)[O-])cc1
inactive: dose: 100.0 mg/kg/injection, schedule: Q01DX001 (ip), vehicle: saline 100 % of control | [5] 100 % of control | [6] 94 % of control

O=[N+]([O-])c1sc2ccccc2c1Br
inactive: dose: 5.0 mg/kg/injection, schedule: Q04DX002 (ip), vehicle: Klucel (hydroxypropylcellulose) (HPC) 101 % of control | dose: 10.0 mg/kg/injection, schedule: Q04DX002 (ip), vehicle: Klucel (hydroxypropylcellulose) (HPC) 97 % of control | dose: 20.0 mg/kg/injection, schedule: Q04DX002 (ip), vehicle: Klucel (hydroxypropylcellulose) (HPC) 97 % of control

O=C1CSC(=S)N1c1cccc(C(F)(F)F)c1
inactive: [1] 108 % of control | [2] 101 % of control | [7] 104 % of control

C=C[N+](C)(C)C
inactive: dose: 5.0 mg/kg/injection, schedule: Q01DX001 (ip), vehicle: saline 100 % of control | dose: 10.0 mg/kg/injection, schedule: Q01DX001 (ip), vehicle: saline 107 % of control | dose: 20.0 mg/kg/injection, schedule: Q01DX001 (ip), vehicle: saline 103 % of control | dose: 40.0 mg/kg/injection, schedule: Q01DX001 (ip), vehicle: saline 103 % of control
